Results from the Kinase Knowledgebase extract (Sharma et al. 2016).
Values joined by “and” are separate entries in the source; they are usually repeats but may differ in a detail not shown here. Identical values can stand only once.

Biological target: CDK2 (UniProt P24941)
Assay: Enzyme Assay

Compound | IC50
CC(C)[C@@H](CO)Nc1cc(NCc2ccc[n+]([O-])c2)n2ncc(Br)c2n1 | 0.1 to 100 nM
CCc1cnn2c(NCc3ccc[n+]([O-])c3)cc(C3CCCCC3)nc12 | 0.1 to 100 nM
Nc1ncc(CNc2cc(C3CCCNC3)nc3c(Br)cnn23)cn1 (centres undefined) | 0.1 to 100 nM
OCC[C@@H]1CCCN1c1cc(NCc2cccnc2)n2ncc(Br)c2n1 | 0.1 to 100 nM
CS(=O)(=O)N1CCC(c2cc(NCc3cccnc3)n3ncc(Br)c3n2)CC1 | 0.1 to 100 nM
O=c1ccc(CNc2cc(-c3ccccc3F)nc3c(Br)cnn23)c[nH]1 | 0.1 to 100 nM
[O-][n+]1cccc(CNc2cc(C3CCOCC3)nc3c(Br)cnn23)c1 | 0.1 to 100 nM
CCc1cnn2c(NCc3ccc[n+]([O-])c3)cc(-c3ccccc3)nc12 | 0.1 to 100 nM
OCC1CCCCN1c1cc(NCc2cccnc2)n2ncc(Br)c2n1 (centres undefined) | 0.1 to 100 nM
CC(=O)N1CCCC(c2cc(NCc3cccnc3)n3ncc(Br)c3n2)C1 (centres undefined) | 0.1 to 100 nM
[O-][n+]1cccc(CNc2cc(N3CCC[C@H]3CO)nc3c(Br)cnn23)c1 | 0.1 to 100 nM
CCc1cnn2c(NCc3ccc[n+]([O-])c3)cc(-c3ccccc3F)nc12 | 0.1 to 100 nM
OCC1(Nc2cc(NCc3cccnc3)n3ncc(Br)c3n2)CCCC1 | 0.1 to 100 nM
CC(C)(CO)Nc1cc(NCc2cccnc2)n2ncc(Br)c2n1 | 0.1 to 100 nM
CC(C)c1cc(NCc2ccc[n+]([O-])c2)n2ncc(Br)c2n1 | 0.1 to 100 nM
Brc1cnn2c(NCc3ccc4[nH]cnc4c3)cc(C3CCCCC3)nc12 | 0.1 to 100 nM
Cn1cnc2cc(CNc3cc(-c4ccccc4)nc4c(Br)cnn34)ccc21 | 0.1 to 100 nM
OC[C@H]1CCCC[C@H]1c1cc(NCc2cccnc2)n2ncc(Br)c2n1 | 0.1 to 100 nM
CCc1cnn2c(NCc3cccnc3)cc(-c3ccccc3)nc12 | 0.1 to 100 nM
Brc1cnn2c(NCc3cccnc3)cc(C3CCCNC3)nc12 (centres undefined) | 0.1 to 100 nM
CC(C)[C@H](CO)Nc1cc(NCc2ccc[n+]([O-])c2)n2ncc(Br)c2n1 | 0.1 to 100 nM
Brc1cnn2c(NCc3cccnc3)cc(-c3ccccc3)nc12 | 0.1 to 100 nM

Compound | IC50
Brc1cnn2c(NCc3cccnc3)cc(-c3ccco3)nc12 | 0.1 to 100 nM
CC(C)(O)[C@@H]1CCCN1c1cc(NCc2cccnc2)n2ncc(Br)c2n1 | 0.1 to 100 nM
[O-][n+]1cccc(CNc2cc(-c3ccc(Cl)cc3)nc3c(Br)cnn23)c1 | 0.1 to 100 nM
O=c1ccc(CNc2cc(-c3ccccc3)nc3c(Br)cnn23)c[nH]1 | 0.1 to 100 nM
[O-][n+]1cccc(CNc2cc(-c3cccs3)nc3c(Br)cnn23)c1 | 0.1 to 100 nM
CNC(=O)c1ccc(CNc2cc(-c3ccccc3F)nc3c(Br)cnn23)cc1 | 0.1 to 100 nM
N[C@H]1CC[C@H](Nc2cc(NCc3cccnc3)n3ncc(Br)c3n2)CC1 | 0.1 to 100 nM
[O-][n+]1cccc(CNc2cc(-c3ccccc3Cl)nc3c(Br)cnn23)c1 | 0.1 to 100 nM
[O-][n+]1cccc(CNc2cc(-c3ccccc3F)nc3c(Br)cnn23)c1 | 0.1 to 100 nM
CCc1cnn2c(NCc3ccc(OC)[n+]([O-])c3)cc(-c3ccccc3F)nc12 | 0.1 to 100 nM
[O-][n+]1cc(CNc2cc(-c3ccccc3)nc3c(Br)cnn23)ccc1OCC(F)(F)F | 0.1 to 100 nM
Brc1cnn2c(NCc3cccnc3)cc(C3CCNCC3)nc12 | 0.1 to 100 nM
O=c1cc(CNc2cc(-c3ccccc3)nc3c(Br)cnn23)cc[nH]1 | 0.1 to 100 nM
Cc1ccccc1-c1cc(NCc2ccc[n+]([O-])c2)n2ncc(Br)c2n1 | 0.1 to 100 nM
COc1ccc(CNc2cc(-c3ccccc3F)nc3c(Br)cnn23)c[n+]1[O-] | 0.1 to 100 nM
CS(=O)(=O)N1CCCC(c2cc(NCc3cccnc3)n3ncc(Br)c3n2)C1 (centres undefined) | 0.1 to 100 nM
[O-][n+]1cccc(CNc2cc(C3CCCCC3)nc3c(Br)cnn23)c1 | 0.1 to 100 nM
NC(=O)N1CCCC(c2cc(NCc3cccnc3)n3ncc(Br)c3n2)C1 (centres undefined) | 0.1 to 100 nM
O=c1ccc(CNc2cc(C3CCCCC3)nc3c(Br)cnn23)c[nH]1 | 0.1 to 100 nM
CN1CCN(c2cc(NCc3cccnc3)n3ncc(Br)c3n2)CC1 | 140 nM
Brc1cnn2c(NCc3ccc4[nH]cnc4c3)cc(C3CCNCC3)nc12 | 0.1 to 100 nM
CC(=O)N1CCC(c2cc(NCc3cccnc3)n3ncc(Br)c3n2)CC1 | 0.1 to 100 nM

Compound | IC50
COc1c(Cl)cc(CNc2cc(-c3ccccc3)nc3c(Br)cnn23)c[n+]1[O-] | 0.1 to 100 nM
Brc1cnn2c(NCc3ccc(-c4csnn4)cc3)cc(C3CCNCC3)nc12 | 0.1 to 100 nM
[O-][n+]1cccc(CNc2cc(-c3ccco3)nc3c(Br)cnn23)c1 | 0.1 to 100 nM
Brc1cnn2c(NCc3cccnc3)cc(C3CCOCC3)nc12 | 0.1 to 100 nM
Fc1ccccc1-c1cc(NCc2ccc3[nH]cnc3c2)n2ncc(Br)c2n1 | 0.1 to 100 nM
Brc1cnn2c(NCc3cccnc3)cc(C3CCCCC3)nc12 | 0.1 to 100 nM
OC[C@H]1CCCC[C@H]1Nc1cc(NCc2cccnc2)n2ncc(Br)c2n1 | 0.1 to 100 nM
Fc1ccccc1-c1cc(NCc2ccncc2)n2ncc(Br)c2n1 | 32 nM and 24 nM
CCOc1ccc(CNc2cc(-c3ccccc3)nc3c(Br)cnn23)c[n+]1[O-] | 0.1 to 100 nM
OCCC1CCCCN1c1cc(NCc2cccnc2)n2ncc(Br)c2n1 (centres undefined) | 0.1 to 100 nM
CCc1cnn2c(NCc3ccnc(O)c3)cc(-c3ccccc3)nc12 | 0.1 to 100 nM
CC(C)(O)[C@@H]1CCCN1c1cc(NCc2ccc[n+]([O-])c2)n2ncc(Br)c2n1 | 0.1 to 100 nM
[O-][n+]1cccc(CNc2cc(C3CCNCC3)nc3c(Br)cnn23)c1 | 0.1 to 100 nM
NC(=O)N1CCC(c2cc(NCc3cccnc3)n3ncc(Br)c3n2)CC1 | 0.1 to 100 nM
[O-][n+]1cccc(CNc2cc(-c3ccccc3)nc3c(Br)cnn23)c1 | 0.1 to 100 nM
CC1(C)[C@@H]2[C@@H](CO)N(c3cc(NCc4cccnc4)n4ncc(Br)c4n3)C[C@@H]21 | 0.1 to 100 nM
CC(C)Oc1ccc(CNc2cc(-c3ccccc3F)nc3c(Br)cnn23)c[n+]1[O-] | 0.1 to 100 nM
O=C(C1CC1)N1CCC(c2cc(NCc3cccnc3)n3ncc(Br)c3n2)CC1 | 0.1 to 100 nM
CC(C)(O)[C@H]1CCCC[C@H]1c1cc(NCc2cccnc2)n2ncc(Br)c2n1 | 0.1 to 100 nM
Oc1cc(CNc2cc(C3CCCCC3)nc3c(Br)cnn23)ccn1 | 0.1 to 100 nM
